What was measured:
[1] = tested on: TGF-β protein; assay: TGF-β protein expression in NHLF, western blotting (3-1); format: cell-based, human
Procedure: Normal Human lung fibroblasts (NHLF) were seeded into 6 cm culture dishes at a density of 2×10^5 cells/dish, comprising a control group and six experimental groups (7 dishes in total). The cells were cultured until the next day, and then the mediums were removed. Each group was respectively treated under the following conditions to conduct follow-up experiments: • (1) Control group: cells were cultured in a FGM-2 medium containing 10% serum for 36 hours; • (2) Group i: cells were cultured in a FGM-2 medium containing 1% serum for 36 hours; • (3) Group ii: cells were firstly cultured in a FGM-2 medium containing 1% serum for 12 hours, and then compound (1) was added into the medium to provide a final concentration of 15 μg/ml; thereafter, the cells were cultured for another 24 hours; • (4) Group iii: cells were firstly cultured in a FGM-2 medium containing 1% serum for 12 hours, and then compound (1) was added into the medium to provide a final concentration of 25 μg/ml; thereafter, the cells were cultured for another 24 hours; • (5) Group iv: cells were cultured in a FGM-2 medium containing 1% serum and TGF-β1 (5 ng/ml) for 36 hours; • (6) Group v: cells were firstly cultured in a FGM-2 medium containing 1% serum and TGF-β1 (5 ng/ml) for 12 hours, and then compound (1) was added into the medium to provide a final concentration of 15 μg/ml; thereafter, the cells were cultured for another 24 hours; and • (7) Group vi: cells were firstly cultured in a FGM-2 medium containing 1% serum and TGF-β1 (5 ng/ml) for 12 hours, and then compound (1) was added into the medium to provide a final concentration of 25 μg/ml; thereafter, the cells were cultured for another 24 hours.
(§1) Thereafter, the proteins in the cells of each group were extracted, and the expressions of BMP-7 protein, TGF-β protein and α-SMA protein in the NHLF cells of each group were measured with western blotting, wherein the β-actin served as the internal control. The results of the control group served as the basis for calculating the relative expression levels of the other groups.

[2] = tested on: BMP-7 protein; assay: BMP-7 protein expression in TGF-β1-induced NHLF, western blotting (Example 4); format: cell-based, human; conditions: uninduced control = 1, TGF-β1-only group A = 0.19
Procedure: Normal Human lung fibroblasts (NHLF) were seeded into 6 cm culture dishes at a density of 2×10^5 cells/dish, comprising a control group and five experimental groups (6 dishes in total). The cells were cultured until the next day, and then the mediums were removed. Each group was respectively treated under the following conditions to conduct follow-up experiments: • (1) Control group: cells were cultured in a FGM-2 medium containing 1% serum for 36 hours; • (2) Group A: cells were cultured in a FGM-2 medium containing 1% serum and TGF-β1 (5 ng/ml) for 36 hours; • (3) Group B: cells were firstly cultured in a FGM-2 medium containing 1% serum and TGF-β1 (5 ng/ml) for 12 hours, and then compound (1) was added into the medium to provide a final concentration of 15 μg/ml; thereafter, the cells were cultured for another 24 hours; • (4) Group C: cells were firstly cultured in a FGM-2 medium containing 1% serum and TGF-β1 (5 ng/ml) for 12 hours, and then compound (1) was added into the medium to provide a final concentration of 30 μg/ml; thereafter, the cells were cultured for another 24 hours; • (5) Group D: cells were firstly cultured in a FGM-2 medium containing 1% serum and TGF-β1 (5 ng/ml) for 12 hours, and then compound (2) was added into the medium to provide a final concentration of 100 μg/ml; thereafter, the cells were cultured for another 24 hours; and • (6) Group E: cells were firstly cultured in a FGM-2 medium containing 1% serum and TGF-β1 (5 ng/ml) for 12 hours, and then compound (2) was added into the medium to provide a final concentration of 200 μg/ml; thereafter, the cells were cultured for another 24 hours.
as §1, with “p-smad2/3” for “α-SMA”, “blotting.” for “blotting, wherein the β-actin served as the internal control.”

[3] = tested on: surfactant C; assay: surfactant C in mouse pulmonary tissue, western blotting; format: in vivo, mice; conditions: compared to oil group
Procedure: 24 C57B/L6 mice (age: four weeks) were separated into four groups (6 mice in each group). […]
The samples of mice pulmonary tissue provided by Example 7 and preserved at −20° C. were removed from storage, and then ground in liquid nitrogen. […] The expressions of TGF-β protein, smad3 protein and surfactant C in the samples of each group were measured with western blotting, wherein the actin served as an internal control.

## CCCC=C1OC(=O)c2ccccc21 [compound (1)]
[1]; Group ii: 1% serum 12 h, then compound (1) 15 μg/ml 24 h, no TGF-β1, 10% serum control = 1, 1% serum group i = 0.66
  Relative expression level (fold) TGF-β protein: 0.63 fold
[1]; Group iii: 1% serum 12 h, then compound (1) 25 μg/ml 24 h, no TGF-β1, 10% serum control = 1, 1% serum group i = 0.66
  Relative expression level (fold) TGF-β protein: 0.52 fold
[1]; Group v: 1% serum + TGF-β1 5 ng/ml 12 h, then compound (1) 15 μg/ml 24 h, 10% serum control = 1, TGF-β1-only group iv = 0.80
  Relative expression level (fold) TGF-β protein: 0.79 fold
[1]; Group vi: 1% serum + TGF-β1 5 ng/ml 12 h, then compound (1) 25 μg/ml 24 h, 10% serum control = 1, TGF-β1-only group iv = 0.80
  Relative expression level (fold) TGF-β protein: 0.59 fold
[2]; Group B: TGF-β1 5 ng/ml 12 h, then compound (1) 15 μg/ml 24 h
  Relative expression level (fold) BMP-7 protein: 0.68 fold
[2]; Group C: TGF-β1 5 ng/ml 12 h, then compound (1) 30 μg/ml 24 h
  Relative expression level (fold) BMP-7 protein: 0.31 fold
[3]; High-dose group, compound (1) 50 mg/kg orally daily 30 days
  expression level of surfactant C in pulmonary tissue: significantly higher
[3]; Low-dose group, compound (1) 10 mg/kg orally daily 30 days
  expression level of surfactant C in pulmonary tissue: significantly higher
